Values joined by “and” are separate entries in the source; they are usually repeats but may differ in a detail not shown here. Equal entries are not always repeated.
How the values were obtained:
[1] = system: murine dispersed islet cells; assay: Glucagon secretion from murine dispersed islet cells; assay type: cell-based, mouse; details: for Secretion of glucagon: Rhy (2.5 µM) alone, listed as Rhy
Experimental: (§1) Pancreata of nondiabetic C57BL/6J mice were digested using collagenase P (Roche Diagnostics, catalog 11213873001), and islets were manually picked up using a stereomicroscope (ZEISS Stemi 305). […] Isolated mouse islets or provided human islets were dispersed as described ([28]). Briefly, 100–120 islets were washed 2 times using modified HBSS, then dispersed in 600 μL Accutase (Innovative Cell Technologies, catalog AT-104) by gently pipetting up and down for 7 minutes at 37°C. […] Following refreshing of KRBH, cells were dispensed in 8 microfuge tubes (2,000 cells/tube) and treated with WCDD301, preclustered Ephrin-A5 Fc, or preclustered Fc in the presence or absence of the competitive inhibitor of EphA4 receptor, rhyncophylline ([60]) (MilliporeSigma, catalog SML2345). In the presence or absence of these effectors, secretion assay was performed sequentially as shown in Supplemental Table 5. […] Preclustering of Ephrin-A5 Fc was done by mixing Ephrin-A5 Fc or Fc alone (BioLegend, catalog 790102) with anti-Fc antibody (Invitrogen, catalog A16086) (1:10 molar ratio) 20 minutes before treatment ([62]). […] Shedding of cleaved EphA4 was measured from the cell culture medium. Experiments were performed by dispersion of 200 islets, and EphA4 levels in media were measured by EphA4 ELISA (ABclonal, catalog RK06572).

[2] = Microsomal stability assay, human liver microsomes; assay type: in vitro ADME; details: for Remaining in hepatic microsomes (100 at 0 min): human microsomes, Figure 5C; for Hepatic clearance: predicted from microsomal data
Experimental: (§2) A total of 445 μL of the working solution was transferred into prewarmed incubation plates for treated (T60) and control (NCF60) measurements. After preincubation (10 minutes at 37°C with constant shaking), 54 μL was transferred to the blank plate, followed by 6 μL of NADPH and 180 μL quenching solution. In parallel, 5 μL of WCDD301 (100 μM) was added into incubation plates (T60 and NCF60) containing microsomes and mixed thoroughly (3 times). For the NCF60 plate, 50 μL of buffer was added, mixed (thoroughly, 3 times), shaken, and incubated at 37°C for 60 minutes. In the quenching plate T0, quenching solution (180 μL) and NADPH cofactor (6 μL) were added. For T60 plate, 54 μL of the mixture was placed into the quenching plate (for T0 point), followed by adding 44 μL NADPH cofactor with shaking incubation at 37°C for 60 minutes. Quenching solution (180 μL) was added to quenching plates at 5, 15, 30, 45, and 60 minutes, and 60 μL of sample was transferred from T60 plate per time point to the quenching plates. For the NCF60 plates, 60 μL sample from the NCF60 incubation plate was transferred to the quenching plate (containing quenching solution) at the 60-minute time point. After plates were shaken for 10 minutes and centrifuged (1,750g, 20 minutes at 4°C), 80 μL of the supernatant was transferred into 240 μL HPLC water for LC-MS/MS analysis. The following first-order kinetic equation was used to calculate half-life (T1/2): [drawing 3]; when
(§3) Then, intrinsic clearance [CLint (microsomal; mic)] and hepatic clearance [CLint (liver)] were predicted using the following equations ([66]): […]

[3] = Microsomal stability assay, CD-1 mouse liver microsomes; assay type: in vitro ADME; details: for Remaining in hepatic microsomes (100 at 0 min): mouse microsomes, Figure 5D; for Hepatic clearance: mouse, predicted from microsomal data
Experimental: as §2, §3

[4] = system: human donor dispersed islet cells; assay: Glucagon secretion from healthy human donor dispersed islet cells; assay type: cell-based; details: human α cells; range of concentrations; Supplemental Figure 1A
Experimental: as §1
The Integrated Islet Distribution Program provided us human donor islets with their characteristics (Supplemental Table 6). Islets were centrifuged at 500g for 3 minutes, resuspended in CMRL 1066 medium (Gibco, catalog 1150-037) containing 11 mM glucose, and rested in an incubator overnight.
For the hormone secretion assay, islets or dispersed islet cells were adapted in KRBH buffer containing 11 mM glucose for 1 hour. Then, after 2 washes in HBSS containing 11 mM glucose, islets or cells were treated in the following sequential order in the presence or absence of WCDD301: incubation in KRBH (1 mM glucose, 30 minutes) followed by medium collection, incubation in KRBH (11 mM glucose, 30 minutes) followed by medium collection.

[5] = Plasma stability assay, CD-1 mouse plasma; assay type: in vitro ADME; details: for Ln (% Remaining): mouse plasma, 37°C, Figure 5B
Experimental: (§4) Pooled frozen plasma of CD-1 mice (n = 20; catalog MSE00PLK2M2N, Beijing Vital River Laboratory Animal Technology) or humans (n = 6, catalog […]2P2N, Bioreclamation IVT), equal numbers of males and females, was thawed in a 37°C water bath, and residual clots were removed by centrifugation (500g for 5 minutes). Plasma (98 μL) was aliquoted in each well of 96-well reaction plates using an Apricot automation workstation. WCDD301 (100 μM) or propantheline bromide (100 μM, as a positive control) was added (2 μL/well) to sets of wells assigned to blank or time points (T0, T10, T30, T60, and T120 minutes) and incubated at 37°C. At each time point, the reaction was stopped by adding stop solution (500 μL; a mixture of 200 ng/mL of tolbutamide and labetalol in acetonitrile), mixed thoroughly, sealed, shaken (20 minutes), and centrifuged (1,750g, 4°C, 20 minutes). A total of 150 μL of the supernatant from each well of the reaction plate was transferred to its corresponding bioanalysis plate for LC-MS/MS analysis. The remaining level (%) of the WCDD301 was calculated using the following equation: remaining (%) = (PAR at each time point/PAR at T0) × 100. PAR stands for the peak area ratio of the WCDD301 versus internal standard.

[6] = Plasma stability assay, human plasma; assay type: in vitro ADME; details: for Ln (% Remaining): human plasma, 37°C, Figure 5A
Experimental: as §4

Structure (SMILES): N=C(N)NCCC[C@H](N)C(=O)O [Arginine, reference compound]
- Effect on glucagon secretion ([1]; Arginine 25 mM alone, Supplemental Figure 2): significantly increased glucagon secretion

Structure (SMILES): O=C(O)Cc1ccccc1Nc1c(Cl)cccc1Cl [Diclofenac]
- Intrinsic microsomal clearance ([2]; human): 313.9 µL/min/mg
- Remaining in hepatic microsomes (100 at 0 min) ([2]; 5 min): 48.7
- Remaining in hepatic microsomes (100 at 0 min) ([2]; 15 min): 9.3
- Remaining in hepatic microsomes (100 at 0 min) ([2]; 30 min): 0.9
- half-life at 1 µM ([2]; human, liver microsomes): 4.4 min
- Hepatic clearance ([2]; human): 282.5 mL/min/kg
- Remaining in hepatic microsomes (100 at 0 min) ([3]; 5 min): 85.5
- Remaining in hepatic microsomes (100 at 0 min) ([3]; 15 min): 77.8
- Remaining in hepatic microsomes (100 at 0 min) ([3]; 30 min): 58.6
- Remaining in hepatic microsomes (100 at 0 min) ([3]; 45 min): 52.8
- Remaining in hepatic microsomes (100 at 0 min) ([3]; 60 min): 39.3
- Hepatic clearance [3]: 115.5 mL/min/kg

Structure (SMILES): COc1cc2nc(N3CCN(C(=O)C4COc5ccccc5O4)CC3)nc(N)c2cc1OC (centres unmarked) [Doxazosin, reference compound]
- Effect on glucagon secretion [4]: increased glucagon secretion
- Effect on glucagon secretion ([1]; mouse α cells, range of concentrations, Supplemental Figure 1B-E): increased glucagon secretion

Structure (SMILES): CC(C)[N+](C)(CCOC(=O)C1c2ccccc2Oc2ccccc21)C(C)C [Propantheline, propantheline bromide]
- half-life at 2 µM ([5]; both sexes, CD-1, mouse, plasma): 34.3 min
- Ln (% Remaining) ([5]; 10 min): -0.31
- Ln (% Remaining) ([5]; 30 min): -0.9
- Ln (% Remaining) ([5]; 60 min): -1.58
- Ln (% Remaining) ([5]; 120 min): -2.45
- half-life at 2 µM ([6]; both sexes, human, plasma): 9.8 min
- Ln (% Remaining) ([6]; 10 min): -0.39
- Ln (% Remaining) ([6]; 30 min): -2.06
- Ln (% Remaining) ([6]; 60 min): -4.13

Structure (SMILES): C[C@]12CC[C@H]3[C@@H](CCC4=CC(=O)CC[C@@]43C)[C@@H]1CC[C@@H]2O [Testosterone]
- Intrinsic microsomal clearance ([2]; human): 95.6 µL/min/mg
- Microsomal half-life ([2]; human): 14.5 min
- Remaining in hepatic microsomes (100 at 0 min) ([2]; 5 min): 78.1
- Remaining in hepatic microsomes (100 at 0 min) ([2]; 15 min): 33
- Remaining in hepatic microsomes (100 at 0 min) ([2]; 30 min): 12.9
- Remaining in hepatic microsomes (100 at 0 min) ([2]; 45 min): 8.4
- Remaining in hepatic microsomes (100 at 0 min) ([2]; 60 min): 6.4
- Hepatic clearance ([2]; human): 86 mL/min/kg
- half-life at 1 µM ([3]; CD-1, mouse, liver microsomes): 5.4 min
- microsomal CLint at 1 µM ([3]; CD-1, mouse, liver microsomes, read-out: Intrinsic microsomal clearance): 257 µL/min/mg
- Remaining in hepatic microsomes (100 at 0 min) ([3]; 5 min): 43.1
- Remaining in hepatic microsomes (100 at 0 min) ([3]; 15 min): 11.2
- Remaining in hepatic microsomes (100 at 0 min) ([3]; 30 min): 2
- Hepatic clearance [3]: 1018.5 mL/min/kg

Structure (SMILES): CC[C@H]1CN2CC[C@]3(C(=O)Nc4ccccc43)[C@@H]2C[C@@H]1/C(=C\OC)C(=O)OC [rhyncophylline, reference compound]
- Secretion of glucagon ([1]; Glucose (1 mM), Figure 1H): 0.87 and 0.81 and 0.85 and 0.79 and 0.82
- Secretion of glucagon ([1]; Glucose (11 mM), Figure 1H): 0.41 and 0.5 and 0.38 and 0.45 and 0.4
- Effect of EphA4 inhibition on suppression of glucagon secretion ([1]; competitive inhibitor of EphA4, Figure 1H): abolished the suppressive effect of both Ephrin-A5 and 1.5 μM WCDD301 on glucagon secretion
